# Laboratory results reported in patent publication US20100004342A1, “LFA-1 Inhibitors and Use Thereof” (priority 2003, published 2010).
# “Also recorded” adds a separate entry of the source. Like-named read-outs stand apart in the source and are kept apart here.
# Experiments:
# [1] = test system: vascular endothelial cell; settings: cited from earlier work
# LFA-1 and ICAM-1 = LFA-1 and ICAM-1 (Homo sapiens, UniProt P20701); settings: cited from earlier work
# [2] = test system: peripheral blood monocytes; assay: Peripheral blood monocyte adhesion to culture plate (MTT); type: cell-based, human; settings: for number of the cells adhering on the plate surface: cultured with varying concentrations of polyamines for 70 to 80 hours; for inhibition effect on cell adhesion to the cell culture plate: culture for approximately 16 to 24 hours
# Procedure: Peripheral blood monocytes were cultured on a 96-well cell culture plate using the culture medium described above. […] Following the culture, the cell culture plate was washed three times with PBS (−) solution to remove the cells floating in the culture medium. As a result, there remained only the cells adhering on the inside bottom of the cell culture plate. […] The culture supernatant was removed. As a result, there remained only the cells firmly adhering on the inside bottom of the cell culture plate, as described above. […] Thiazolyl blue (MTT) (C18H16N5SBr) (Sigma. St. Louis, USA) was added in the final concentration of 0.35 mg/mL, and the cells were cultured at 37° C. for 2 to 4 hours until the cells were stained. MTT is taken up into cells, and the dye is discolored only in live cells. Therefore, the amount of the live cells existing can be confirmed from the amount of the dye. This means that the larger the amount of the dye is, the higher the number of the cells and the cell activity are. After the cells were sufficiently stained with MTT, the culture supernatant was removed by aspiration. The cells were dissolved by addition of 100 μl of cell lysis solution (2-propanol (isopropanol; Wako Pure Chemical Industries LTD, Osaka, Japan) mixed with 12 M (mol/L) hydrochloric acid (HCl; Wako Pure Chemical Industries LTD, Osaka, Japan)), to recover the dye in the cells. Absorbance in the cell culture plate was measured at 2 absorbance wavelengths of 570 nm and 690 nm using an absorbance reader (Titertek Multiskan MCC/340, Labsystems, Flow Laboratories Inc., USA).
# [3] = test system: vascular endothelial cells; assay: Peripheral blood monocyte adhesion to vascular endothelial cell (BCECF-AM); type: cell-based, human; settings: for number of the cells adhering to the vascular endothelial cells: cultured with 100 or 500 μM polyamine for 72 to 80 hours, compared with culture without
# CD11a = assay: Detection of cell membrane differentiation antigen CD11a of human peripheral blood monocyte (FACS); type: cell-based; settings: for number of the cell expressing CD11a on the cell surface / rate to the total cells of the cells with expression of CD11a or CD18: peripheral blood monocytes cultured with polyamine
# Source text: (§1) Human peripheral blood was collected, and peripheral blood monocytes including lymphocyte, monocyte and the like were recovered from the collected blood by specific gravity centrifugation technique using SEPARATE-L (Muto Pure Chemicals Co. LTD., Tokyo, Japan). Next, the recovered peripheral blood monocytes were suspended in PRMI1640 culture medium (Sigma chemical co., St. Louis, USA) mixed with 10% human serum (Wako Pure Chemical Industries LTD., Osaka, Japan), 0.1% L-glutamine (Invitrogen Corp., CA, USA), and 0.01% penicillin-streptomycin (Invitrogen Corp., CA, USA) and cultured in the humidified air at 37° C. containing 5% carbonic acid gas. […] Following culture for a given time, the peripheral blood monocytes were recovered from the culture medium and used in Examples 2, 4, 5, and 6.
# For confirming that obtained experimental results were not derived from changes produced by the polyamines present in the culture medium and kept in contact with the cells for a long time, different peripheral blood monocytes were prepared.
# (§2) The peripheral blood monocytes cultured for 16 to 80 hours by the method of Example 1 were collected from the cell culture plate so as not to damage the cells. The collected cells were washed with PBS (−) solution and then fixed using phosphate buffered saline without calcium chloride and without magnesium chloride (hereinafter, referred to as PBS (−); Invitrogen Corporation, GIBCO, Grand Island, N.Y., USA) containing 2% paraformaldehyde (Wako Pure Chemical Industries LTD, Osaka, Japan), so as not to achieve change in cell membrane antigen molecules on the cell surface of the peripheral blood monocytes. The peripheral blood monocytes were further washed, to which antibodies to the cell membrane antigen molecules were then added in an amount corresponding to 5 μL (microliter) per 500000 cells. The antibodies used here are CD2 (FITC label), CD4 (FITC), CD8 (PE label), CD11a (FITC), CD11b (PE), CD11c (PE), CD18 (FITC), CD31 (PE), CD49d (PE), CD49e (PE), CD54 (PE), CD62L (PE), CD95 (FITC), and VIA-PROBE (FITC). All of these antibodies are manufactured by PharMingen (A Becton Dickinson Company, San Jose, Calif., USA).
# (§3) After each antibody was added to the cells and reacted in the dark for 20 minutes, positive rate and light intensity of the cell membrane differentiation antigen expressed in the cultured peripheral blood were measured with FACS analyzer (FACSCalibur; manufactured by Becton Dickinson) (Becton Dickinson Japan, Tokyo). The population of the peripheral blood monocytes was of interest in the measurement of florescence of the cell surface, and the measurement of all of the cultured cells was also conducted at the same time. Further, a negative control was used, and a measurement gate was set to obtain each antibody positive rate of the cells within the gate and average fluorescence intensity of the positive cells.
# [4] = test system: peripheral blood monocytes; assay: Number and activity of the total cultured cells (MTT), cytotoxicity check; type: cell-based, human; settings: for cellular cytotoxicity to the peripheral blood monocytes: high concentrations (up to 1 mM); for amount of the MTT dye taken up into the cells (total cultured cells): total cells in the plate, varying polyamine concentration
# Procedure: Then, the culture supernatant in the plate was removed with the utmost caution not to soak up the cells adhering on the inside bottom of the plate. This means that all the cells present in the cell culture plate exist on the inside bottom of the plate. […] Absorbance of the cell culture medium was measured at 2 absorbance wavelengths of 570 nm and 690 nm using an absorbance reader (Titertek Multiskan MCC/340, Labsystems, Flow Laboratories Inc., USA). As a result, each polyamine concentration and the total amount of live cells of the cultured peripheral blood monocytes can be confirmed.
# [5] = test system: peripheral blood monocytes; settings: for cellular cytotoxicity: peripheral blood monocytes, VIA-Probe
# Source text: as §1, §2, §3
# [6] = test system: peripheral blood monocytes; assay: Blastogenesis of peripheral blood monocytes by Con-A or PHA (3H-thymidine); type: cell-based, human; settings: cultured with 100 μM polyamine for approximately 12 to 18 hours
# Procedure: Following the culture, the cells were washed three times with PBS (−) to remove extracellular polyamines, The washed peripheral blood monocytes were cultured for 64 hours in culture medium (RPMI1640 containing 10% fetal bovine serum) mixed with PHA (Difco Laboratories, Detroit, Mich., USA) or Con-A (Sigma chemical co., St. Louis, USA). Then, ^3H-thymidine (Amersham) was added to the cells, followed by additional culture for 8 hours. Following the culture, the peripheral blood monocytes were recovered, and radioactivity of the cells was measured (liquid scintillation counter, LKB-1205, LKB). Since the peripheral blood monocytes activated by mitogen (PHA, Con-A, or the like) cause blast transformation, the cells take up ^3H-thymidine therein. Accordingly, function of cell activation can be measured by measuring the amount of intracellular ^3H-thymidine.
# rats [7] = settings: cited from earlier work
# rats [8] = settings: cited from earlier work; remark: listed apart in the source
# [9] = test system: adhesion molecules (CD11b, CD11c, CD31, CD49d, CD49e, CD54, and CD62L); assay: Detection of adhesion molecules except CD11a and CD18 on human peripheral blood monocyte (FACS); type: cell-based; settings: for average fluorescence intensity of adhesion molecules (CD11b, CD11c, CD31, CD49d, CD49e, CD54, and CD62L) except CD11a and CD18: peripheral blood monocytes cultured with polyamine
# Source text: as §1, §2, §3
# CD18 = assay: Detection of cell membrane differentiation antigen CD18 of human peripheral blood monocyte (FACS); type: cell-based; settings: peripheral blood monocytes cultured with polyamine
# Source text: as §1, with “6. […]” for “6.”
# as §3, with “The population of the peripheral blood monocytes was of interest in the measurement of florescence of the cell surface, and the measurement of all of the cultured cells was also conducted at the same time.” left out
# [10] = test system: CD16, CD31, CD49d, and CD54; settings: peripheral blood monocyte accidentally infected; cultured with spermine
# Procedure: as §2, with “The antibodies used here are CD2 (FITC label), CD4 (FITC), CD8 (PE label), CD11a (FITC), CD11b (PE), CD11c (PE), CD18 (FITC), CD31 (PE), CD49d (PE), CD49e (PE), CD54 (PE), CD62L (PE), CD95 (FITC), and VIA-PROBE (FITC). All of these antibodies are manufactured by PharMingen (A Becton Dickinson Company, San Jose, Calif., USA).” left out
# as §3, with “The population of the peripheral blood monocytes was of interest in the measurement of florescence of the cell surface, and the measurement of all of the cultured cells was also conducted at the same time.” left out
# intestinal mucosa = settings: contained in meal; cited from earlier work
# [11] = test system: functional cell membrane differentiation antigen except adhesion molecules
# Source text: as §1, §2, §3
# [12] = test system: Daudi cells (Burkitt lymphoma cells); settings: cultured overnight with 100 μM spermine, then IL-2 for 72 hours
# psoriasis = settings: clinical examples, human; cited from earlier work
# [13] = peripheral blood monocytes cultured with polyamine (0, 100, 500 μM) for 70 to 80 hours
# Chain of LFA-1 and ICAM-1 (P20701 26-1170): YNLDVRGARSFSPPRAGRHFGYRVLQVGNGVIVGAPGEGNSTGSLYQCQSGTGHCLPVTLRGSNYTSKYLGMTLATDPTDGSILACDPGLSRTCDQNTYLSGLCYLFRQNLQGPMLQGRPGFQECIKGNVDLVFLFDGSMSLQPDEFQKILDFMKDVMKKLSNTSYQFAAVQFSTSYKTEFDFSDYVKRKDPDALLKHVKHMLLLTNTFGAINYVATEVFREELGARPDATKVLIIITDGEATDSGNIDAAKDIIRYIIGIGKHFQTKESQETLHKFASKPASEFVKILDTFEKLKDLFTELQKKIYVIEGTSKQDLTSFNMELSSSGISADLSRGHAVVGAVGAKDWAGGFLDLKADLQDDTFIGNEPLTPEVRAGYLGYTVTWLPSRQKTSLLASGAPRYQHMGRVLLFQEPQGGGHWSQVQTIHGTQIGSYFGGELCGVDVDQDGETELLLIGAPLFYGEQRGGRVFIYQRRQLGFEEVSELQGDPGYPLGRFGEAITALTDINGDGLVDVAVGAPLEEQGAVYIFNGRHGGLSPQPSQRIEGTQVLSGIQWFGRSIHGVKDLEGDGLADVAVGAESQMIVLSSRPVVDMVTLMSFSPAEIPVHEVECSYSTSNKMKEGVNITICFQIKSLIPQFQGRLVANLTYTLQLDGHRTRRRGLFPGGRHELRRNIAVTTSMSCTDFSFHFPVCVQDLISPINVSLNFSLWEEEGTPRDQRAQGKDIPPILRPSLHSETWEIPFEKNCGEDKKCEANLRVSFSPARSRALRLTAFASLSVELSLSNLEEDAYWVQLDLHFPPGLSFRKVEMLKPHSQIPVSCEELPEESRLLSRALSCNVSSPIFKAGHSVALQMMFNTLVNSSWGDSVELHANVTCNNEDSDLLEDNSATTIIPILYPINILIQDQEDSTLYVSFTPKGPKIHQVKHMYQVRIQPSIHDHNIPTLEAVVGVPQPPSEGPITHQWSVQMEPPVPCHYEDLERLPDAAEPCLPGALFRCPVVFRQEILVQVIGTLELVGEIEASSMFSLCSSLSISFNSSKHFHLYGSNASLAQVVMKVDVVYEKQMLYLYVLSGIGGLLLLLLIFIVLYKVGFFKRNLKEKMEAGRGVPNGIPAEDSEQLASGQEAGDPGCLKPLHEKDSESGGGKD
# Chain of LFA-1 and ICAM-1 (P05107 23-769 partner): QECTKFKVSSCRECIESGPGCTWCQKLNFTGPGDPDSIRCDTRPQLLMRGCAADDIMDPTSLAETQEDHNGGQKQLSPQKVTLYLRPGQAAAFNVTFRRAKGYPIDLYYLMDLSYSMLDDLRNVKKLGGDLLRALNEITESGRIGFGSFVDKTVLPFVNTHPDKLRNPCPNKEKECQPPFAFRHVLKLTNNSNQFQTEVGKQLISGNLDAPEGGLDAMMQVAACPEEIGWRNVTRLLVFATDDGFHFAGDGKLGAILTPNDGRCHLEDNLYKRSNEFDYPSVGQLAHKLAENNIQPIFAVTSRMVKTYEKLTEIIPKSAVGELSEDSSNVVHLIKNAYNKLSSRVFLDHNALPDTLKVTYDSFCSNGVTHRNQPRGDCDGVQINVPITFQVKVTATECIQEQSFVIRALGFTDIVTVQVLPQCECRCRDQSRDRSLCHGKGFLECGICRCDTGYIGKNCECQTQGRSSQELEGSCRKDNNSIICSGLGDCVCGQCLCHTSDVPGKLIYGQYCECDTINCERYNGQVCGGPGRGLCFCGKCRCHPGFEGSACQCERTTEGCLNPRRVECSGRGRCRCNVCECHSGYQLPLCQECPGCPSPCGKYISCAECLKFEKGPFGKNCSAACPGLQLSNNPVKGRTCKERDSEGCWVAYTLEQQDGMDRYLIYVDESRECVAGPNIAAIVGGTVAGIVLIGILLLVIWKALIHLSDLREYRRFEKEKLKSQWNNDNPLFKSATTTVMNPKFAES
Compound,number of the cells adhering on the plate surface [2],number of the cells adhering to the vascular endothelial cells [3],average fluorescence intensity of CD11a (CD11a; [13]),cellular cytotoxicity to the peripheral blood monocytes [4],amount of the MTT dye taken up into the cells (total cultured cells) [4],cellular cytotoxicity [5],inhibition effect on cell adhesion to the cell culture plate [2],blastogenesis by Con-A or PHA [6],"average fluorescence intensity of adhesion molecules (CD11b, CD11c, CD31, CD49d, CD49e, CD54, and CD62L) except CD11a and CD18 [9]",average fluorescence intensity of CD18 (CD18),number of the cell expressing CD11a on the cell surface (CD11a),rate to the total cells of the cells with expression of CD11a or CD18 (CD11a),also measured
CC(C)c1c(C(=O)Nc2ccccc2)c(-c2ccccc2)c(-c2ccc(F)cc2)n1CC[C@@H](O)C[C@@H](O)CC(=O)O [atorvastatin],,,,,,,,,,,,,monocyte adhesion to vascular endothelial cell [1]: inhibits monocyte adhesion to vascular endothelial cell
CC[C@H](C)C(=O)O[C@H]1C[C@@H](C)C=C2C=C[C@H](C)[C@H](CC[C@@H]3C[C@@H](O)CC(=O)O3)[C@H]21 [lovastatin],,,,,,,,,,,,,adhesion between LFA-1 and ICAM-1 (LFA-1 and ICAM-1): blocks adhesion between LFA-1 and ICAM-1
"Cl.Cl.NCCCCN [putrescine, 1,4-Butanediamine dihydrochloride, reference compound]",not inhibited,not inhibited,not evident,,,,,,,,,,
"NCCCCNCCCN [spermidine, N-aminobutyl-1,3-diaminopropane]",decreased with increase of spermine and spermidine concentrations,,inhibited dependently on spermidine concentration,no cellular cytotoxicity,no reduction,no cellular cytotoxicity,not exhibited,rather enhanced,not decreased,decreased,increased,not decreased,"50% lethal dose (LD50) (rats [7]; rats, acute toxicity test): 600 mg/kg of body weight; amount up to which no side effect is observed (rats [8]; subacute toxicity test, administration for 6 weeks): up to 83 mg/kg of body weight/day"
"NCCCNCCCCNCCCN [spermine, 4,9-diazadodecane-1,12-diamine]",decreased with increase of spermine and spermidine concentrations,low,reduced as spermine concentration was increased; also recorded: strongest,no cellular cytotoxicity,no change,no cellular cytotoxicity,not exhibited,rather enhanced,not decreased,decreased with increase of spermine concentration,increased,not decreased,"expression of cell membrane differentiation antigen such as CD16, 31, 49d, and 54 (average fluorescence intensity) [10]: markedly decreased; concentration in meal at which it has toxicity (intestinal mucosa): ≥ 0.2%; average fluorescence intensity of cell membrane differentiation antigens other than the adhesion molecules ([11]; FIG. 8, cells cultured with spermine): no decrease; expression rate of cell membrane differentiation antigen except adhesion molecules (expression positive rate) ([11]; cells cultured with spermine): not decreased; dead cells (VIA-Probe) ([5]; spermine concentration that most strongly decreased CD11a and CD18 fluorescence): not increased; inhibition of cell adhesion to the inside bottom of the culture plate ([2]; plate inverted and centrifuged (500 rpm, 5 minutes) after 70 to 82 hours culture): more remarkable result of the inhibition; 50% lethal dose (LD50) (rats [7]; rat, in vivo): 600 mg/kg of body weight; amount up to which no side effect is observed (rats [8]; rat, in vivo): up to 19 mg/kg of body weight/day; expression rate of adhesion molecules (expression positive rate) ([9]; cells cultured with spermine): not decreased; average fluorescence intensity of CD62L ([9]; peripheral blood monocytes cultured with spermine): obviously increased dependently on spermine concentration; number of the adhering cells (vascular endothelial cells) ([3]; culture with 500 μM spermine for 20 hours): not decreased; cellular cytotoxicity (LAK activity) of the peripheral blood monocytes [12]: reduced; average fluorescence intensity of CD11a (decreasing effect) (CD11a; cells cultured for 20 to 26 hours): not observed; number of the cells having strong fluorescent intensity (CD11a histogram) (CD11a; cells supplemented with spermine): decreased; average fluorescence intensity of CD11a (CD11a; cultured with spermine 16 to 24 hours, washed, then cultured without spermine 48 to 56 hours): decrease of the average fluorescence intensity of CD11a"
efalizumab: a CD11a antibody,,,,,,,,,,,,,psoriasis symptoms (psoriasis): improved
